Measurements: ChEMBL document CHEMBL4359901, “Cyclic enaminone as new chemotype for selective cyclooxygenase-2 inhibitory, anti-inflammatory, and analgesic activities” (Eur J Med Chem, 2019)

How the values were obtained:
Rattus norvegicus [1] = assay: Antiinflammatory activity in Wistar albino rat assessed as reduction in carrageenan-induced paw edema at 25 mg/kg, ip measured after 2 hrs by plethysmometric method (reference value: 1.58 +/- 0.21 ml); format: functional
[2] = Ulcerogenicity in Sprague-Dawley rat assessed as formation of ulcer at 50 mg/kg, po after 1 hr by microscopic analysis; format: toxicity, organism-based; settings: in vivo
Rattus norvegicus [3] = assay: Antiinflammatory activity in Wistar albino rat assessed as reduction in carrageenan-induced paw volume at 12.5 mg/kg, ip measured after 2 hrs by plethysmometric method (reference value: 1.58 +/- 0.21 ml); format: functional
Rattus norvegicus [4] = assay: Antiinflammatory activity in Wistar albino rat assessed as reduction in carrageenan-induced paw volume at 12.5 mg/kg, ip measured after 3 hrs by plethysmometric method (reference value: 1.75 +/- 0.33 ml); format: functional
Rattus norvegicus [5] = assay: Analgesic activity in Wistar albino rat assessed as reaction time at 25 mg/kg, ip measured after 30 mins for 15 secs by hot plate method (reference value: 4.21 +/- 0.41 sec); format: functional
Rattus norvegicus [6] = assay: Analgesic activity in Wistar albino rat assessed as reaction time at 25 mg/kg, ip measured after 60 mins for 15 secs by hot plate method (reference value: 4.67 +/- 0.52 sec); format: functional
Rattus norvegicus [7] = assay: Analgesic activity in Wistar albino rat assessed as reaction time at 25 mg/kg, ip measured after 120 mins for 15 secs by hot plate method (reference value: 4.32 +/- 0.52 sec); format: functional
Rattus norvegicus [8] = assay: Analgesic activity in Wistar albino rat assessed as reaction time at 25 mg/kg, ip measured after 180 mins for 15 secs by hot plate method (reference value: 3.87 +/- 0.38 sec); format: functional
Rattus norvegicus [9] = assay: Analgesic activity in Wistar albino rat assessed as reaction time at 12.5 mg/kg, ip measured after 120 mins for 15 secs by hot plate method (reference value: 4.32 +/- 0.52 sec); format: functional
Rattus norvegicus [10] = assay: Antiinflammatory activity in Sprague-Dawley rat model of carrageenan-induced thermal hyperalgesia assessed as paw withdrawal latency time at 30 mg/kg, po administered 1 hr prior to carrageenan challenge and measured after 1 hr by planter test (reference value: 8.88 +/- 0.52 sec); format: functional
Rattus norvegicus [11] = assay: Antiinflammatory activity in Sprague-Dawley rat model of carrageenan-induced thermal hyperalgesia assessed as paw withdrawal latency time at 50 mg/kg, po administered 1 hr prior to carrageenan challenge and measured after 3 hrs by planter test (reference value: 4.13 +/- 0.45 sec); format: functional
Rattus norvegicus [12] = assay: Antiinflammatory activity in Sprague-Dawley rat model of carrageenan-induced thermal hyperalgesia assessed as paw withdrawal latency time at 30 mg/kg, po administered 1 hr prior to carrageenan challenge and measured after 4 hrs by planter test (reference value: 5.47 +/- 0.84 sec); format: functional
Rattus norvegicus [13] = assay: Antiinflammatory activity in Sprague-Dawley rat model of carrageenan-induced thermal hyperalgesia assessed as paw withdrawal latency pressure at 30 mg/kg, po administered 1 hr prior to carrageenan challenge and measured after 2 hrs by Von-frey test (reference value: 146.47 +/- 5.12 g); format: functional
Rattus norvegicus [14] = assay: Antiinflammatory activity in Sprague-Dawley rat model of carrageenan-induced thermal hyperalgesia assessed as paw withdrawal latency pressure at 50 mg/kg, po administered 1 hr prior to carrageenan challenge and measured after 2 hrs by Von-frey test (reference value: 146.47 +/- 5.12 g); format: functional
Rattus norvegicus [15] = assay: Antiinflammatory activity in Sprague-Dawley rat model of carrageenan-induced thermal hyperalgesia assessed as paw withdrawal latency pressure at 30 mg/kg, po administered 1 hr prior to carrageenan challenge and measured after 3 hrs by Von-frey test (reference value: 31.65 +/- 3.33 g); format: functional
Rattus norvegicus [16] = assay: Antiinflammatory activity in Sprague-Dawley rat model of carrageenan-induced thermal hyperalgesia assessed as paw withdrawal latency pressure at 50 mg/kg, po administered 1 hr prior to carrageenan challenge and measured after 3 hrs by Von-frey test (reference value: 146.61 +/- 1.58 g); format: functional
Rattus norvegicus [17] = assay: Antiinflammatory activity in Sprague-Dawley rat model of carrageenan-induced thermal hyperalgesia assessed as paw withdrawal latency pressure at 30 mg/kg, po administered 1 hr prior to carrageenan challenge and measured after 5 hrs by Von-frey test (reference value: 169.58 +/- 4.26 g); format: functional
Rattus norvegicus [18] = assay: Antiinflammatory activity in Sprague-Dawley rat model of carrageenan-induced thermal hyperalgesia assessed as paw withdrawal latency pressure at 50 mg/kg, po administered 1 hr prior to carrageenan challenge and measured after 5 hrs by Von-frey test (reference value: 169.58 +/- 4.26 g); format: functional
Rattus norvegicus [19] = assay: Antiinflammatory activity in Sprague-Dawley rat model of carrageenan-induced thermal hyperalgesia assessed as paw withdrawal latency pressure at 50 mg/kg, po administered 1 hr prior to carrageenan challenge and measured after 2 hrs by Randall-Selitto test (reference value: 231.13 +/- 3.15 g); format: functional
Rattus norvegicus [20] = assay: Antiinflammatory activity in Sprague-Dawley rat model of carrageenan-induced thermal hyperalgesia assessed as paw withdrawal latency pressure at 30 mg/kg, po administered 1 hr prior to carrageenan challenge and measured after 3 hrs by Randall-Selitto test (reference value: 176.84 +/- 8.1 g); format: functional
Rattus norvegicus [21] = assay: Antiinflammatory activity in Sprague-Dawley rat model of carrageenan-induced thermal hyperalgesia assessed as paw withdrawal latency pressure at 50 mg/kg, po administered 1 hr prior to carrageenan challenge and measured after 3 hrs by Randall-Selitto test (reference value: […] g); format: functional
Rattus norvegicus [22] = assay: Antiinflammatory activity in Sprague-Dawley rat model of carrageenan-induced thermal hyperalgesia assessed as paw withdrawal latency pressure at 30 mg/kg, po administered 1 hr prior to carrageenan challenge and measured after 5 hrs by Randall-Selitto test (reference value: 224.08 +/- 7.12 g); format: functional
Rattus norvegicus [23] = assay: Antiinflammatory activity in Sprague-Dawley rat model of carrageenan-induced thermal hyperalgesia assessed as paw withdrawal latency pressure at 50 mg/kg, po administered 1 hr prior to carrageenan challenge and measured after 5 hrs by Randall-Selitto test (reference value: 224.08 +/- 7.12 g); format: functional
[24] = Antioxidant activity assessed as DPPH radical scavenging activity at 20 uM/ml incubated for 20 mins by spectrophotometric method relative to control; format: functional
[25] = Antioxidant activity assessed as DPPH radical scavenging activity at 100 uM/ml incubated for 20 mins by spectrophotometric method relative to control; format: functional
[26] = Cardiotoxicity in Sprague-Dawley rat assessed as SBP rate at 50 mg/kg; format: toxicity, organism-based; settings: in vivo
Rattus norvegicus [27] = assay: Antiinflammatory activity in Sprague-Dawley rat model of carrageenan-induced thermal hyperalgesia assessed as paw withdrawal latency pressure at 30 mg/kg, po administered 1 hr prior to carrageenan challenge and measured after 1 hr by Randall-Selitto test (reference value: 246.55 +/- 1.05 g); format: functional
Rattus norvegicus [28] = assay: Antiinflammatory activity in Sprague-Dawley rat model of carrageenan-induced thermal hyperalgesia assessed as paw withdrawal latency pressure at 50 mg/kg, po administered 1 hr prior to carrageenan challenge and measured after 1 hr by Randall-Selitto test (reference value: 246.55 +/- 1.05 g); format: functional
[29] = Ulcerogenicity in Sprague-Dawley rat assessed as formation of ulcer at 30 mg/kg, po after 1 hr by microscopic analysis; format: toxicity, organism-based; settings: in vivo

CC(=O)N(C1=CC(=O)CCC1)c1ccc(Cl)cc1
Activity (Rattus norvegicus [1]): 1.2 mL
UI [2]: 0
Activity (Rattus norvegicus [3]): 1.26 mL
Activity (Rattus norvegicus [4]): 1.18 mL
Time (Rattus norvegicus [5]): 6.86 s
Time (Rattus norvegicus [6]): 7.27 s
Time (Rattus norvegicus [7]): 11.58 s
Time (Rattus norvegicus [8]): 11.88 s
Time (Rattus norvegicus [9]): 10.15 s
Time (Rattus norvegicus [10]): 10.58 s
Time (Rattus norvegicus [11]): 8.38 s
Time (Rattus norvegicus [12]): 6.67 s
Activity (Rattus norvegicus [13]): 157.83 g
Activity (Rattus norvegicus [14]): 168.03 g
Activity (Rattus norvegicus [15]): 152.92 g
Activity (Rattus norvegicus [16]): 169.23 g
Activity (Rattus norvegicus [17]): 161.8 g
Activity (Rattus norvegicus [18]): 168.65 g
Activity (Rattus norvegicus [19]): 268.96 g
Activity (Rattus norvegicus [20]): 249.49 g
Activity (Rattus norvegicus [21]): 265.61 g
Activity (Rattus norvegicus [22]): 264.48 g
Activity (Rattus norvegicus [23]): 266.61 g
Activity [24]: 22.4%
Activity [25]: 96.2%
Activity [26]: Non-Toxic
Activity (Rattus norvegicus [27]): 261.72 g
Activity (Rattus norvegicus [28]): 272.83 g
Activity [29]: Non-Toxic
